This note sets out measurements from PubChem BioAssay (NCI).

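Cells were grown in 96-well plates and exposed to each compound for 48 hours at five concentrations; endpoints were interpolated linearly between bracketing concentrations, or set to the highest concentration if not reached. Here, GI50 denotes the concentration required for 50% inhibition of growth. TGI marks complete inhibition of growth.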

By TGI is commonly meant the concentration at which net growth stops. A low value points to greater sensitivity of the cells. The term GI50 denotes the concentration that inhibits growth by half.

Among the test systems are CCRF-CEM leukemia; HL-60(TB) leukemia; HT29 colon; OVCAR-5 ovarian; PC-3 prostate; SNB-75 CNS; T-47D breast; UACC-257 melanoma; NCI-H226 lung; SK-MEL-2 melanoma.
What all share (experiment): DTP human tumour cell line panel, 48 h

As for `Cc1cc2c(=O)c3ccccc3oc2c(C#N)c1C`, the TGI in the test on CCRF-CEM leukemia, in the test on HL-60(TB) leukemia, with HT29 colon, in the test on OVCAR-5 ovarian, in the test with PC-3 prostate and with SNB-75 CNS was above 100 µM each time. Moreover, the TGI in the test on T-47D breast and with UACC-257 melanoma was above 100 µM each time.
Turning to `Cc1[nH]c2ccccc2c1C1=CC(=O)C=CC1=O`, the GI50 in the test with HT29 colon was 13.6 µM; in the test with NCI-H226 lung it was 15.6 µM; with OVCAR-5 ovarian, 17.7 µM; in the test on PC-3 prostate, 12.7 µM; in the test on SK-MEL-2 melanoma it was 12.3 µM; in the test on SNB-75 CNS it was 9.19 µM. Further, the results for the GI50 with T-47D breast and in the test on UACC-257 melanoma were 2.65 µM and 14.3 µM, respectively. In addition, the TGI with HT29 colon is 40.1 µM; with NCI-H226 lung, 30.9 µM; in the test on OVCAR-5 ovarian, 32.8 µM; with PC-3 prostate, 30 µM; in the test with SK-MEL-2 melanoma, 28.9 µM; in the test on SNB-75 CNS it was 34.7 µM. Moreover, the values for the TGI with T-47D breast and in the test on UACC-257 melanoma were 5.75 µM and 28.6 µM, respectively.
Take `O=C(OC(CNc1c(C(=O)c2ccccc2)c(=O)n(Cc2ccccc2)c(=O)n1Cc1ccccc1)CN1CCCCC1)c1ccccc1` (stereo not given): the GI50 in the test with CCRF-CEM leukemia is 16 µM; with HL-60(TB) leukemia, 14.8 µM; in the test on NCI-H226 lung, 67.2 µM; in the test on OVCAR-5 ovarian, 24.7 µM; in the test with PC-3 prostate, 13.1 µM; with SK-MEL-2 melanoma it was 19.1 µM. Further, the GI50 with T-47D breast is above 100 µM; with UACC-257 melanoma, 15.1 µM. Further, the TGI in the test with CCRF-CEM leukemia was 40 µM; in the test with HL-60(TB) leukemia, 33.8 µM; with NCI-H226 lung, above 100 µM; with OVCAR-5 ovarian it was 63.4 µM; with PC-3 prostate, 26.4 µM; in the test with SK-MEL-2 melanoma it was 34.8 µM. The TGI is above 100 µM in the test on T-47D breast and 32.5 µM with UACC-257 melanoma.
For `O=C(O)C1CCCCC1C(=O)Nc1nc2ccccc2[nH]1` (stereo not given), the TGI in the test with CCRF-CEM leukemia, in the test on HT29 colon, in the test on NCI-H226 lung, with OVCAR-5 ovarian, with PC-3 prostate and in the test with SK-MEL-2 melanoma was above 100 µM throughout. Besides, the TGI in the test with SNB-75 CNS, in the test with T-47D breast and in the test with UACC-257 melanoma was above 100 µM in each case.
In the case of `Cc1cccc2c1ccc1c3occ(C)c3c(=O)oc21`, the GI50 in the test on CCRF-CEM leukemia, in the test on HT29 colon, in the test with NCI-H226 lung, with OVCAR-5 ovarian, with PC-3 prostate and in the test with SK-MEL-2 melanoma was above 100 µM each time. The GI50 in the test with SNB-75 CNS was 45.7 µM; in the test with T-47D breast, 9.65 µM; in the test with UACC-257 melanoma, above 100 µM. In addition, the total growth inhibition concentration (TGI) in the test with CCRF-CEM leukemia, in the test on HT29 colon, with NCI-H226 lung, with OVCAR-5 ovarian, in the test with PC-3 prostate and in the test on SK-MEL-2 melanoma was above 100 µM in each case. Moreover, the TGI with SNB-75 CNS, in the test with T-47D breast and with UACC-257 melanoma was above 100 µM throughout.
For the molecule `CS(=O)(=O)N(CC(=O)O)Cc1ccccc1`, the total growth inhibition concentration (TGI) in the test on CCRF-CEM leukemia, in the test on HT29 colon, in the test on NCI-H226 lung, with OVCAR-5 ovarian, in the test on PC-3 prostate and with SK-MEL-2 melanoma was above 100 µM in each case. Also, the TGI in the test on SNB-75 CNS, in the test with T-47D breast and with UACC-257 melanoma was above 100 µM throughout.
In the case of `COc1ccc2cc(C(=O)/C=C/c3ccco3)ccc2c1`, the GI50 was 24.6 µM with HL-60(TB) leukemia; 42.5 µM in the test on HT29 colon; 47.4 µM with PC-3 prostate; 21.6 µM in the test on SK-MEL-2 melanoma; above 100 µM in the test on SNB-75 CNS; above 100 µM with T-47D breast. In the test on UACC-257 melanoma, the GI50 is 26.1 µM. Moreover, the TGI is 83.3 µM with HL-60(TB) leukemia; above 100 µM with HT29 colon; above 100 µM in the test with PC-3 prostate; 59.1 µM with SK-MEL-2 melanoma; above 100 µM in the test on SNB-75 CNS; above 100 µM with T-47D breast. This molecule also yielded a TGI in the test on UACC-257 melanoma of 59.6 µM.
`O=C(NCc1cccs1)OC1CC2CCC1C2` (stereo not given): the TGI in the test with CCRF-CEM leukemia, in the test with HL-60(TB) leukemia, in the test on HT29 colon, with NCI-H226 lung, with OVCAR-5 ovarian and in the test on PC-3 prostate was above 100 µM throughout. Also, the TGI in the test on SK-MEL-2 melanoma, in the test on T-47D breast and in the test on UACC-257 melanoma was above 100 µM each time.
Turning to `COC(=O)c1cc(NC(=O)CN(CCN(CC(=O)O)CC(=O)Nc2ccc(O)c(C(=O)OC)c2)CC(=O)O)ccc1O`, the GI50 in the test with CCRF-CEM leukemia is 30.9 µM; in the test with HL-60(TB) leukemia, 42.2 µM; in the test with HT29 colon, above 100 µM; in the test on NCI-H226 lung it was above 100 µM; in the test on OVCAR-5 ovarian, above 100 µM; in the test with PC-3 prostate, 96.2 µM. Moreover, the GI50 with SK-MEL-2 melanoma is above 100 µM; in the test with SNB-75 CNS it was 55.3 µM; with T-47D breast it was 32.7 µM. In addition, the TGI in the test on CCRF-CEM leukemia, with HL-60(TB) leukemia, with HT29 colon, with NCI-H226 lung, with OVCAR-5 ovarian and with PC-3 prostate was above 100 µM in each case. Moreover, the TGI in the test on SK-MEL-2 melanoma, with SNB-75 CNS and in the test with T-47D breast was above 100 µM throughout.
For `O=C(O)CP(=O)(c1ccccc1)c1ccccc1.O=C(O)CP(=O)(c1ccccc1)c1ccccc1.[Cd]`, the GI50 was 15.9 µM in the test on HL-60(TB) leukemia; 18 µM in the test with HT29 colon; 12.7 µM with NCI-H226 lung; 16 µM in the test on OVCAR-5 ovarian; 18 µM in the test on PC-3 prostate; 19.6 µM with SK-MEL-2 melanoma. The results for the GI50 in the test on SNB-75 CNS, in the test on T-47D breast and in the test with UACC-257 melanoma were 16 µM, 24 µM and 15.4 µM, respectively. For the same molecule, the TGI was 60.7 µM in the test on HL-60(TB) leukemia; 37.3 µM in the test on HT29 colon; 28.6 µM in the test on NCI-H226 lung; 30.6 µM in the test on OVCAR-5 ovarian; 35.1 µM in the test on PC-3 prostate; 75.3 µM in the test with SK-MEL-2 melanoma. The TGI with SNB-75 CNS was found to be 32.4 µM; in the test on T-47D breast it was 73.3 µM; in the test with UACC-257 melanoma, 31.4 µM.
